This note sets out measurements from patent US20200181095A1, “SELECTIVE MATRIX METALLOPROTEINASE-13 INHIBITORS” (FLORIDA ATLANTIC UNIVERSITY BOARD OF TRUSTEES, priority 2017, published 2020).

Common to all, as to type: biochemical
In assay [1] the target is T1, MMP-13 (Homo sapiens, UniProt P45452).
T1 construct: purchased R&D Systems 511-MM
Nature of the assay: MMP-13 IC50 enzyme assay with fTHP-15 substrate. As to conditions: for IC50: fTHP substrate. The protocol:
Inhibitor kinetics: Inhibition experiments were conducted as described previously.^3 Briefly, fTHP-15, MMP-13, and inhibitor working solutions were prepared in EAB.
The enzyme was allowed to incubate with the test compounds for 30 min at 25° C. The assays were initiated by addition of 5 μL of fTHP-15 or Knight substrate and immediately placed in the microplate reader to record fluorescence.
To determine IC50 values of each compound, the relative fluorescence units (RFU) from wells containing MMP-13, fTHP-15, and inhibitors were plotted vs. no-enzyme and untreated controls.

The target in assay [2] is T1, MMP-13. Briefly: MMP-13 inhibition constant (Ki) determination, fTHP-15. As to conditions: fTHP-15 substrate, 4 nM MMP-13, mixed inhibition model. On the procedure: Rates of hydrolysis were obtained from plots of fluorescence versus time using data points from only the linear portion of the hydrolysis curve.
KM values were determined by nonlinear regression analysis using the one-site hyperbolic binding model^4 and additionally evaluated by linear analysis. All Ki values were determined by nonlinear regression (hyperbolic equation) analysis using the mixed inhibition model, which allows for simultaneous determination of the mechanism of inhibition, The mechanism of inhibition was determined using the “α” parameter derived from a mixed-model inhibition by GraphPad Prism. The mechanism of inhibition was additionally confirmed by Lineweaver-Burke plots.

The target in assay [3] is Cathepsin-S (Homo sapiens, UniProt P25774). Nature of the assay: Protease selectivity profiling. The arrangement: inhibition: dose or concentration left out as unconfirmed.
Assay [4] addresses TACE (Homo sapiens, UniProt P78536). Nature of the assay: Protease selectivity profiling. Also noted: inhibition: dose or concentration left out as unconfirmed.
The target of assay [5] is Caspase-1 (Homo sapiens, UniProt P29466). Briefly: Protease selectivity profiling. Also noted: inhibition: dose or concentration left out as unconfirmed.
Sequence of Caspase-1 (P29466 120-297 limits assumed, species assumed): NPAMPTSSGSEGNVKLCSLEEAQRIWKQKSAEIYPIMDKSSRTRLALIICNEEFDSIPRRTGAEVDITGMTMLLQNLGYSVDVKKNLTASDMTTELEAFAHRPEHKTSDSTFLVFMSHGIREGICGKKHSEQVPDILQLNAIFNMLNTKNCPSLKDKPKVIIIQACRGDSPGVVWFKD
Sequence of Caspase-1 (P29466 317-404 limits assumed, species assumed): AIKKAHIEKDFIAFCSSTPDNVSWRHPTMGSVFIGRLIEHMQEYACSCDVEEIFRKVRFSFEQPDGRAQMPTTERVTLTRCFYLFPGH
The target in assay [6] is MMP-3 (Homo sapiens, UniProt P08254). Nature of the assay: Protease selectivity profiling. As to conditions: single stranded peptide substrate; inhibitor (text 1 μM); duplicates.
Assay [7] concerns the target Caspase-5 (Homo sapiens, UniProt P51878). Briefly: Protease selectivity profiling. The arrangement: inhibition: dose or concentration left out as unconfirmed.
The target in assay [8] is Cathepsin-L (Homo sapiens, UniProt P07711). Briefly: Protease selectivity profiling. Also noted: inhibition: dose or concentration left out as unconfirmed.
Sequence of Cathepsin-L (P07711 114-333, species assumed): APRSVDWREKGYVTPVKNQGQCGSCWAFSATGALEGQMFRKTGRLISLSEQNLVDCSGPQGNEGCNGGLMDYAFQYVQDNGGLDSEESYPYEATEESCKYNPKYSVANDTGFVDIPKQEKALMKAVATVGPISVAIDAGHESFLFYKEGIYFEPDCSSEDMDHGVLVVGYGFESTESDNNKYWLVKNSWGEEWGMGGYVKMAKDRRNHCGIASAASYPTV
Assay [9] concerns the target T2, Factor-XA (Homo sapiens, UniProt P00742).
T2 construct: Factor-XA
Nature of the assay: Protease selectivity profiling. The arrangement: inhibition: dose or concentration left out as unconfirmed.

The target in assay [10] is BACE-1 (Homo sapiens, UniProt P56817). Nature of the assay: Protease selectivity profiling. The arrangement: inhibition: dose or concentration left out as unconfirmed.
For assay [11], the target named is ACE2 (Homo sapiens, UniProt Q9BYF1). Nature of the assay: Protease selectivity profiling. The arrangement: inhibition: dose or concentration left out as unconfirmed.
Sequence of ACE2 (Q9BYF1 18-805, species assumed): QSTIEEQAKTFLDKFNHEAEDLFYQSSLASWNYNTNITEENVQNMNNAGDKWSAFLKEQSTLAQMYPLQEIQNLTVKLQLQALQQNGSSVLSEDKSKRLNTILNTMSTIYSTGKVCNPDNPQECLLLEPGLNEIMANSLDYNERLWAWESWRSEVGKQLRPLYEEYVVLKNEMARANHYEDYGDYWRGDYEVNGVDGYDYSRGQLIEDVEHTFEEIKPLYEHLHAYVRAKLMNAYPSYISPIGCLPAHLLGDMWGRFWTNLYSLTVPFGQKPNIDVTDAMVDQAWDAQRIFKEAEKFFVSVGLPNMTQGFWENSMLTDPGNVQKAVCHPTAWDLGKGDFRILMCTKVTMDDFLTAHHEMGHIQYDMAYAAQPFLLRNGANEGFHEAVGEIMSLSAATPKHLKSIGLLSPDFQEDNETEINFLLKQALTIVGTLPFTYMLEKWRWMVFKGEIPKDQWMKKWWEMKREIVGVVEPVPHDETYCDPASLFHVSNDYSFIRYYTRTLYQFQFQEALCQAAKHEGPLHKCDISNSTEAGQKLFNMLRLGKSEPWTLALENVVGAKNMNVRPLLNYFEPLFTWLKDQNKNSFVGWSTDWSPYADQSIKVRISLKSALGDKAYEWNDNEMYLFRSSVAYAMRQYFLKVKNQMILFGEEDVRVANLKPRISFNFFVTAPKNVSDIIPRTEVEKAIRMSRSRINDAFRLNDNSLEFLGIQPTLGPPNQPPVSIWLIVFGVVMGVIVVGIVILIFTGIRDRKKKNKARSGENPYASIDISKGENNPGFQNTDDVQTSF
Assay [12] concerns the target Cathepsin-D (Homo sapiens, UniProt P07339). Briefly: Protease selectivity profiling. Also noted: inhibition: dose or concentration left out as unconfirmed.
In assay [13] the target is Furin (Homo sapiens, UniProt P09958). Briefly: Protease selectivity profiling. The arrangement: inhibition: dose or concentration left out as unconfirmed.
The target in assay [14] is MMP-7 (Homo sapiens, UniProt P09237). Briefly: Protease selectivity profiling. The arrangement: inhibition: dose or concentration left out as unconfirmed.
Sequence of MMP-7 (P09237 95-267, species assumed): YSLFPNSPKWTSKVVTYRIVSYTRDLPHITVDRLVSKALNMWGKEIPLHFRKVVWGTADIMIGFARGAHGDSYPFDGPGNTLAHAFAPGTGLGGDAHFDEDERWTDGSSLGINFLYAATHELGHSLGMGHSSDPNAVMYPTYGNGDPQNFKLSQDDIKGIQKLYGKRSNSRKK
The target of assay [15] is T3, MMP-12 (Homo sapiens, UniProt P39900). Briefly: Additional specificity assay, 10-point dilution IC50.
T3 sequence (P39900 106-470, species assumed): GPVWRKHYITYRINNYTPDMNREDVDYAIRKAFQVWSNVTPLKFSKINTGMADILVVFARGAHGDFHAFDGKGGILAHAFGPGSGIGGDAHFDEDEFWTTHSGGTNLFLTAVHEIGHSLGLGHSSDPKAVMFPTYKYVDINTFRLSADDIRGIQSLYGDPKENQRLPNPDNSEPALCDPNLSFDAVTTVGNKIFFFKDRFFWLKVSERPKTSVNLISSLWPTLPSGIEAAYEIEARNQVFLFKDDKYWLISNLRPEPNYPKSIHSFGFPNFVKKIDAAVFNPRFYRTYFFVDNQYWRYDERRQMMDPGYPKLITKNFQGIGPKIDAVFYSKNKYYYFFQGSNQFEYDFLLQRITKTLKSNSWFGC
In assay [16] the target is Caspase-2 (Homo sapiens, UniProt P42575). Briefly: Protease selectivity profiling. Also noted: inhibition: dose or concentration left out as unconfirmed.
Sequence of Caspase-2 (P42575 170-325 limits assumed, species assumed): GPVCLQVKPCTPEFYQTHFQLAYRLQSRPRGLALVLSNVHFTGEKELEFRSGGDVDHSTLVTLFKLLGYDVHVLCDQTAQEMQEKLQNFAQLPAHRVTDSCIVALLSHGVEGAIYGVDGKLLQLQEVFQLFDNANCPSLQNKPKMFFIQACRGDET
Sequence of Caspase-2 (P42575 348-452 limits assumed, species assumed): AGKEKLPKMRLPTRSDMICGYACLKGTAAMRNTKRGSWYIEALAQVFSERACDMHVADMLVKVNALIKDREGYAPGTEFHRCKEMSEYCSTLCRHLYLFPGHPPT
In assay [17] the target is Caspase-3 (Homo sapiens, UniProt P42574). Nature of the assay: Protease selectivity profiling. The arrangement: inhibition: dose or concentration left out as unconfirmed.
Sequence of Caspase-3 (P42574 29-175 limits assumed, species assumed): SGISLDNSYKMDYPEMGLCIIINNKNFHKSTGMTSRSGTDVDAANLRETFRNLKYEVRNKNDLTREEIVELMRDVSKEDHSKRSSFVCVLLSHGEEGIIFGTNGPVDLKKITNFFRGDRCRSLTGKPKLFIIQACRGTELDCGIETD
Sequence of Caspase-3 (P42574 176-277 limits assumed, species assumed): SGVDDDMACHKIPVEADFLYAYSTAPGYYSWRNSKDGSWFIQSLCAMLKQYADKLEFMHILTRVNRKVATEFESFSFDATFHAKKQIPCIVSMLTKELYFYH
The target in assay [18] is T3, MMP-12. Briefly: Protease selectivity profiling. As to conditions: single stranded peptide substrate; inhibitor 1 mM (footnote; text 1 μM); duplicates.
Assay [19] has as its target ACE (Homo sapiens, UniProt P12821). Briefly: Protease selectivity profiling. Also noted: inhibition: dose or concentration left out as unconfirmed.
For assay [20], the target named is Caspase-6 (Homo sapiens, UniProt P55212). Briefly: Protease selectivity profiling. The arrangement: inhibition: dose or concentration left out as unconfirmed.
For assay [21], the target named is ADAM10 (Homo sapiens, UniProt O14672). Nature of the assay: Protease selectivity profiling. Also noted: inhibition: dose or concentration left out as unconfirmed.
In assay [22] the target is Thrombin (Homo sapiens, UniProt P00734). Nature of the assay: Protease selectivity profiling. As to conditions: read-out: % Inhibition Thrombin.
The target in assay [23] is uPA (Homo sapiens, UniProt P00749). Briefly: Protease selectivity profiling. The arrangement: inhibition: dose or concentration left out as unconfirmed.
Assay [24] has as its target Cathepsin-K (Homo sapiens, UniProt P43235). Briefly: Protease selectivity profiling. Also noted: inhibition: dose or concentration left out as unconfirmed.
The target of assay [25] is Neprilysin (Homo sapiens, UniProt P08473). Briefly: Protease selectivity profiling. Also noted: inhibition: dose or concentration left out as unconfirmed.
Assay [26] has as its target IDE (Homo sapiens, UniProt P14735). Briefly: Protease selectivity profiling. Also noted: inhibition: dose or concentration left out as unconfirmed.
Assay [27] deals with Caspase-7 (Homo sapiens, UniProt P55210). Briefly: Protease selectivity profiling. Also noted: inhibition: dose or concentration left out as unconfirmed.
Assay [28] has as its target T4, MMP-2 (Homo sapiens, UniProt P08253).
T4 construct: purchased R&D Systems
Briefly: Selectivity assay MMP-2 (fTHP-15). As to conditions: 200 nM. The protocol: (§1) All enzymes were purchased from R&D Systems and activated according to manufacturer's instructions. Upon activation, each enzyme was diluted in EAB to […] and stored at −80° C. until further use. […]

For assay [29], the target named is T5, MMP-8 (Homo sapiens, UniProt P22894).
T5 construct: purchased R&D Systems
Nature of the assay: Selectivity assay MMP-8 (fTHP-15). The conditions noted are these: 200 nM. On the procedure:
as §1

The mark [30] stands for this setting: single stranded peptide substrate, inhibitor 1 µM, duplicates.

SMILES strings stand for the structures. Values joined by “and” are separate entries in the source; they are usually repeats but may differ in a detail not shown here. Equal entries are not always repeated. Where two headings read alike, the source gives them in different places.

Sequence of IDE (P14735 whole entry, species assumed): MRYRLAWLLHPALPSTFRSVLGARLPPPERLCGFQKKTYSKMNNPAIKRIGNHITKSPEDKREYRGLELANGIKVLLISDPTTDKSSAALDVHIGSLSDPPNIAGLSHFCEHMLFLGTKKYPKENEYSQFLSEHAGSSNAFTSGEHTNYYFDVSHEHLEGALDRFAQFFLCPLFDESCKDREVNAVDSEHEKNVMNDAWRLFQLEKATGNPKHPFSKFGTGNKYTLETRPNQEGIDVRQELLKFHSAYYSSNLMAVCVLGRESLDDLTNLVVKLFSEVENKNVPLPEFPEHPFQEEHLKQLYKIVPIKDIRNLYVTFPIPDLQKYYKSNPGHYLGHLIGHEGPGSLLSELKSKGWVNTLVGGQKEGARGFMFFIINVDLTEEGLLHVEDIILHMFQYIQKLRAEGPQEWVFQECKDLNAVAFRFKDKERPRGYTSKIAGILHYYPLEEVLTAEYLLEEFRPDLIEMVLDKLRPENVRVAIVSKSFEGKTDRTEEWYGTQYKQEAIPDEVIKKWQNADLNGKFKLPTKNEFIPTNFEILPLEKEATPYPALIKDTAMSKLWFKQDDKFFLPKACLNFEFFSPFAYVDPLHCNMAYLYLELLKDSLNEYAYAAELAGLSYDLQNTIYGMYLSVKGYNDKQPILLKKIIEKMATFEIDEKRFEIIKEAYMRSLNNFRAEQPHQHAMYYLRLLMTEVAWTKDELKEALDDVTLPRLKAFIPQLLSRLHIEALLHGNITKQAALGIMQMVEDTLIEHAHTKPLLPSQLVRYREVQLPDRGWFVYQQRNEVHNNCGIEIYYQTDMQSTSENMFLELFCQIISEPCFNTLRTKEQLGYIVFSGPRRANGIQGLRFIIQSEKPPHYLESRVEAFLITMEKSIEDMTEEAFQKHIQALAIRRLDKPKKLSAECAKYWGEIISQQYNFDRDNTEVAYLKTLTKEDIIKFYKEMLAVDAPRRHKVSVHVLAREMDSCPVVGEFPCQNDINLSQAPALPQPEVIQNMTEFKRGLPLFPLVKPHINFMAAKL
Sequence of Cathepsin-D (P07339 65-412, species assumed): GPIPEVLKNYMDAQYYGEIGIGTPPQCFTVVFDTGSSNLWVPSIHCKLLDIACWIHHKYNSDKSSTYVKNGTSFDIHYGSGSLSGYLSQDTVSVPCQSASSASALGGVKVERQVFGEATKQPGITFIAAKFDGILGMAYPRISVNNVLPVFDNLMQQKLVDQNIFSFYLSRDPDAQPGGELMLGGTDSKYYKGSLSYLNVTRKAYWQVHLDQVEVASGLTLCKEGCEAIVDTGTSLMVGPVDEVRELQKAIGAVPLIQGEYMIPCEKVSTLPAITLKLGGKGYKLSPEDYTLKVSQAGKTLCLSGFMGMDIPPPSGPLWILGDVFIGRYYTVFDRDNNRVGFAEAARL
Sequence of Caspase-5 (P51878 138-327 limits assumed, species assumed): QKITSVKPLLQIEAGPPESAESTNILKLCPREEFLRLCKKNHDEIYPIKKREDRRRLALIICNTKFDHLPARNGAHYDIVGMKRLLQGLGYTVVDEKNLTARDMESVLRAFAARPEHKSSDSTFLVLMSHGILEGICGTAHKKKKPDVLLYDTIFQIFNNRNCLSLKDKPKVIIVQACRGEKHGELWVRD
Sequence of Caspase-5 (P51878 347-434 limits assumed, species assumed): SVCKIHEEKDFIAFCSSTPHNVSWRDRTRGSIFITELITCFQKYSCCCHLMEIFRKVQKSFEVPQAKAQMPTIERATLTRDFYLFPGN
Sequence of Cathepsin-K (P43235 115-329, species assumed): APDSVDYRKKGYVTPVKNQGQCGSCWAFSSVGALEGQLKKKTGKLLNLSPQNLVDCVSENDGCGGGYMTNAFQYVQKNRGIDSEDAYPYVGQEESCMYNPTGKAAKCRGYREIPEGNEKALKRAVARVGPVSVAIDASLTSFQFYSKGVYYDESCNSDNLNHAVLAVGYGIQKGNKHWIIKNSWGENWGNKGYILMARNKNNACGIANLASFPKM
T2 sequence (P00742 235-488 limits assumed): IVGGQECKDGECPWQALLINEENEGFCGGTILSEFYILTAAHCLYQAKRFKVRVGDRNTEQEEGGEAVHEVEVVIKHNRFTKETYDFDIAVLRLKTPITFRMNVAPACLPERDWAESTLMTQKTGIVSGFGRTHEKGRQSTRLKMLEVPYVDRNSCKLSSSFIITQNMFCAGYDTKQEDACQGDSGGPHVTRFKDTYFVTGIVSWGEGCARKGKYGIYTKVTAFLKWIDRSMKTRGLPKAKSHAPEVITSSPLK
T2 sequence (P00742 41-179 partner limits assumed): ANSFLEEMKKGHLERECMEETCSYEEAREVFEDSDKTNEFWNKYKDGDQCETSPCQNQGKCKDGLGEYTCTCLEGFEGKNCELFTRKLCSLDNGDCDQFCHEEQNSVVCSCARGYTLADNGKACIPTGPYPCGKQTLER

Usually IC50 stands for the concentration at which inhibition is half-maximal. A word on the Ki: it is a measure of affinity in units of concentration, obtained from inhibition or displacement. For the compound `O=C(O)CNS(=O)(=O)c1ccc(-c2ccc(CSc3nc4c(c(=O)[nH]3)CCC4)cc2)cc1` [Compound 10b], in assay [1], the IC50 was determined as 1.6 nM. The compound also returned a Ki in assay [2] of 1.8 nM.

For `CC(C)[C@@H](NS(=O)(=O)c1ccc(-c2ccc(CSc3nc4c(c(=O)[nH]3)CCC4)cc2)cc1)C(=O)O` [Compound (R)-10a], the 50% inhibitory concentration (IC50) in [1] came out at 2.4 nM. The compound also displayed a Ki in assay [2] of 1.6 nM.

Broadly, the inhibition is the change of the read-out against control, counted positive when it falls. For `NCCNS(=O)(=O)c1ccc(-c2ccc(CSc3nc4c(c(=O)[nH]3)CCC4)cc2)cc1` [Compound 10d], the inhibition at 1 µM in assay [3] (setting [30]) worked out at 12%; in [4] (setting [30]), 4%; in [5] (setting [30]), 1%; in [7] (setting [30]), 0%; in assay [8] (setting [30]), 9%; in [9] (setting [30]), 3%. The inhibition at 1 µM in [10] (setting [30]) turned out to be 1%; in [11] (setting [30]) it was 1%; in assay [12] (setting [30]) it was 3%; in [13] (setting [30]), 0%; in [14] (setting [30]) it was 7%; in assay [16] (setting [30]), 0%. Besides, the inhibition at 1 µM in assay [17] (setting [30]) is 0%; in assay [19] (setting [30]), 7%; in assay [20] (setting [30]), 0%; in assay [21] (setting [30]), 0%; in assay [23] (setting [30]), 3%; in assay [24] (setting [30]), 0%. Further, the inhibition at 1 µM in [25] (setting [30]) is 3%; in assay [26] (setting [30]), 0%; in [27] (setting [30]), 1%. The inhibition in [6] is 13%; in [22] (single stranded peptide substrate, inhibitor (text 1 μM), duplicates), -3%. Also, the “less active as inhibitor of MMP-12 than as MMP-13 inhibitor” value in assay [15] is 140 fold. Also, the IC50 in [15] (fTHP substrates (footnote), 10-point dilution) is 470 nM and 467 nM. Moreover, the inhibition at 1000 µM in assay [18] is 40%.

`CNC(=O)[C@@H](NC(=O)c1ccc(-c2ccc(CSc3nc4c(c(=O)[nH]3)CCC4)c(F)c2)o1)C(C)C` [Compound (S)-17b]: the inhibition in assay [3] (read-out: % Inhibition Cathepsin-S) is 2%; in assay [4] (read-out: % Inhibition TACE), -3%; in assay [5] (read-out: % Inhibition Caspase-1), 0%; in assay [7] (read-out: % Inhibition Caspase-5), 0%; in [8] (read-out: % Inhibition Cathepsin-L), 7%; in assay [9] (read-out: % Inhibition Factor-XA), 0%. For the same compound, the inhibition in assay [10] (read-out: % Inhibition BACE-1) is 0%; in [11] (read-out: % Inhibition ACE2) it was 0%; in assay [12] (read-out: % Inhibition Cathepsin-D) it was 0%; in assay [13] (read-out: % Inhibition Furin) it was 0%; in assay [14] (read-out: % Inhibition MMP-7), 4%; in assay [16] (read-out: % Inhibition Caspase-2), 0%. Besides, the inhibition in assay [17] (read-out: % Inhibition Caspase-3) was 0%; in assay [19] (read-out: % Inhibition ACE), 0%; in assay [20] (read-out: % Inhibition Caspase-6) it was 0%; in [21] (read-out: % Inhibition ADAM10), 0%; in assay [22], -8%; in assay [23] (read-out: % Inhibition uPA) it was 1%. Moreover, the inhibition in assay [24] (read-out: % Inhibition Cathepsin-K) was 2%; in assay [25] (read-out: % Inhibition Neprilysin), -6%; in assay [26] (read-out: % Inhibition IDE), 0%; in assay [27] (read-out: % Inhibition Caspase-7), 8%.

Regarding `CNC(=O)[C@H](NC(=O)c1ccc(-c2ccc(CSc3nc4c(c(=O)[nH]3)CCC4)cc2)o1)C(C)C` [(R)-17a], in [1], the “loss of inhibition activity vs. MMP-13 compared to the (S)-enantiomer” value is given as “ca. 12 fold” and the IC50 is 72 nM.

Consider `CNC(=O)[C@@H](NC(=O)c1ccc(-c2ccc(CSc3nc4c(c(=O)[nH]3)CCC4)cc2)o1)C(C)C` [(S)-17a], for which, in [1], the “improvement of MMP-13 inhibition potency compared to 5” value is given as ~1,000 fold and the IC50 came out at 5.9 nM. In addition, in assay [28], the “inhibition of MMP-2 in single dose assay” value is given as “moderately active inhibitor”. Besides, in assay [29], the “inhibition of MMP-8 in single dose assay” value is listed as “moderately active inhibitor”.

On to `CC(C)[C@H](NS(=O)(=O)c1ccc(-c2ccc(CSc3nc4c(c(=O)[nH]3)CCC4)cc2)cc1)C(=O)O` [(S)-10a], for which inhibition in assay [1] was half-maximal at 2.2 nM (IC50). The compound further displayed a Ki in assay [2] of 2.3 nM.
